# Like-named read-outs stand apart in the source and are kept apart here. No end group written: not given here.
# What was measured:
# [1] = biological target: T1, Soluble mouse EPOR chimera proteins (Mus musculus, UniProt P14753); experiment: SPR binding affinity of erythropoietin-derived peptides to erythropoietin receptor; details: for koff: read-out: Kd (dissociation rate); for kon: read-out: Ka (association rate)
# T1 construct: Soluble mouse EPOR chimera proteins; purchased R&D Systems
# T1 sequence (P14753 25-249 limits assumed): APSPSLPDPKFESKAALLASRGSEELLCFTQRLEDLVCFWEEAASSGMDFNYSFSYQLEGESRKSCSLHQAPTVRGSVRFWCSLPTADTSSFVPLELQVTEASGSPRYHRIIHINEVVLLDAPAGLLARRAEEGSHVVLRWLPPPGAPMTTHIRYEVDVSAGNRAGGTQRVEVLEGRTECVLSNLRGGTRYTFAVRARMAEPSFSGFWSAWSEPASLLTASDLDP
# Procedure: The SPR technique is to measure interactions between biomolecules in real-time by using an optical principle without specific labeling, and is a system analyzing affinity between two molecules and kinetics, i.e., an association rate (Ka) and a dissociation rate (Kd).
# In detail, real-time SPR analysis was performed using Reichert SPR Biosensor SR 7500C instrument (Reichert Inc., NY, USA). Soluble mouse EPOR chimera proteins (R&D Systems, Minneapolis, MN, USA) were covalently linked to a carboxymethylated dextran matrix-coated chip (BR-1005-39, Pharmacia Biosensor AB) by an amine coupling procedure using an amine coupling kit (BR-1000-50, GE Healthcare, USA) in accordance with manufacturer's instructions. Each 5 μM, 2.5 μM, and 1.25 μM of the peptide samples of the present disclosure and scrambled peptides were applied at a flow rate of 5 μl/minute, and the experiments were independently performed in duplicate. For signal normalization, DMSO was applied at a flow rate of 5 μl/minute, and after each binding cycle, the sensor chip was regenerated by injecting 25 mM acetic acid at a flow rate of 20 μl/minute.
# [2] = tested on: PC12 cells; experiment: Comparison of cell protective and proliferative effects to EPO by K-means clustering; type: cell-based; details: FIG. 9
# [3] = biological target: T2, erythropoietin receptor (Homo sapiens, UniProt P19235); experiment: Erythropoietin receptor activation through ERK1/2 phosphorylation (western blot) in HEK 293 cells expressing EPOR-GFP; type: cell-based; details: FIG. 12; for character of erythropoietin receptor activation: ERK1/2 phosphorylation
# T2 construct: expressed in transfected cells
# T2 sequence (P19235 25-508): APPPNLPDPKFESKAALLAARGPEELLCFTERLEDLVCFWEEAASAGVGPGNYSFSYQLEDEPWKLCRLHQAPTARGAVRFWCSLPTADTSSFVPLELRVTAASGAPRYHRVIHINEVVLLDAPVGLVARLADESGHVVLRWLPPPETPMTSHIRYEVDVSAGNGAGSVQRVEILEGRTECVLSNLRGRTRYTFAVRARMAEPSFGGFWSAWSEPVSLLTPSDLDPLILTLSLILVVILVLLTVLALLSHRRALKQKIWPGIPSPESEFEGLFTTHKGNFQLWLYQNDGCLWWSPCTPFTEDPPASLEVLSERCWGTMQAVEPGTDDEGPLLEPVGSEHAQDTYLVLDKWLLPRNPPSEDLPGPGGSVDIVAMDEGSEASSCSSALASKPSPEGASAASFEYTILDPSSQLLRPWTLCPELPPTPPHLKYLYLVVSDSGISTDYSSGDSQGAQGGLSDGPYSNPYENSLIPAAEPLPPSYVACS
# [4] = tested on: PC12 cells; experiment: Cell proliferation, MTT assay; type: cell-based; details: 10 ng/ml peptide, 24 hours, FIG. 7
# Procedure: To determine the side effect, such as cell proliferation, of the peptides prepared in Examples 1 to 3, cell viability was evaluated by an MTT assay.
# In detail, PC12 cells were cultured in a DMEM (Dulbecco's Modified Eagle's Medium) medium (Hyclone, USA) and an RPM11640 medium (Hyclone, UT, USA), each supplemented with 10% fetal bovine serum (FBS, Hyclone, Utah, USA), 100 unit/ml penicillin, and 100 μg/ml streptomycin (Hyclone, UT, USA) in an incubator supplied with 5% CO2 and under a condition of 37° C. PC12 cell lines were seeded in a 96-well plate at a density of 5×10^4 cells/ml, and cultured under conditions of 37° C. and 5% CO2 for 24 hours. Thereafter, the cells were treated with each of the peptides of Examples 1 to 3, which were prepared at a concentration of 10 ng/ml, followed by incubation for 24 hours. Thereafter, 20 μl of 5 mg/ml 3-[4,5-dimethyl-thiazol]-2,5-diphenyl-tetrazolium bromide (MTT) reagent was added thereto, and allowed to react for 2 hours. After reaction, 200 μl of dimethyl sulfoxide (DMSO, Duksan, Gyeonggi-do, Korea) was added thereto to completely dissolve formed formazan, and absorbance at 570 nm was measured using a microplate reader (Molecular Devices, CA, USA).
# [5] = tested on: mice; experiment: In vivo hematopoietic activity, blood test; set-up: species or system mouse
# Procedure: In vivo hematopoietic activities in a mouse were measured for the peptides prepared in Example 5, MLP, MLP-C, and MLP-H.
# In detail, the prepared peptide or scrambled (Scr) peptide as a negative control group was administered by intraperitoneal injection to mice at a dose of 0 μg/kg, 1 μg/kg, or 100 μg/kg repeatedly, everyday over 14 days. Thereafter, a body weight test and a blood test were performed.
# [6] = sampling at 0, 30, 60, 90 minutes
# [7] = 100 μg/kg intraperitoneal daily over 14 days
molecule,measurement,setting,value
CC[C@H](C)[C@H](NC(=O)[C@H](C)NC(=O)[C@H](CCC(=O)O)NC(=O)[C@H](CCCCN)NC(=O)[C@H](CCC(N)=O)NC(=O)[C@H](C)NC(=O)CNC(=O)[C@H](CC(C)C)NC(=O)[C@H](C)NC(=O)[C@H](CCCNC(=N)N)NC(=O)[C@H](CC(C)C)NC(=O)[C@H](CC(C)C)NC(=O)[C@@H](NC(=O)[C@@H](NC(=O)[C@H](CC(C)C)NC(=O)[C@H](CO)NC(=O)[C@H](CCCNC(=N)N)NC(=O)[C@H](CC(C)C)NC(=O)CNC(=O)[C@@H](N)CO)[C@@H](C)O)[C@@H](C)O)C(=O)O [ML6],koff,"[1]; SPR, Table 10",0.045 s⁻¹
AGLRSRAHLRRALA [ML5-1],kon,"[1]; SPR, Table 10",442 M⁻¹ s⁻¹
same,koff,"[1]; SPR, Table 10",0.0346 s⁻¹
DEALDLEVDKAATGLRTLTTLIRAL [ML7-1],kon,"[1]; SPR, Table 10",226 M⁻¹ s⁻¹
same,koff,"[1]; SPR, Table 10",0.0144 s⁻¹
DKAVSGLRSLTTLLRAL [ML8],kon,"[1]; SPR, Table 10",180 M⁻¹ s⁻¹
same,koff,"[1]; SPR, Table 10",0.08 s⁻¹
DKAVSGLRSLTTLLRALGAQKEAI [ML4],kon,"[1]; SPR, Table 10",220 M⁻¹ s⁻¹
same,koff,"[1]; SPR, Table 10",0.0022 s⁻¹
KGLRSLISLLRALGAQKEAI [ML6-1],kon,"[1]; SPR, Table 10",190 M⁻¹ s⁻¹
same,koff,"[1]; SPR, Table 10",0.03 s⁻¹
KKAVSGLKTLTHILRALGAQKEAI [ML4-1],kon,"[1]; SPR, Table 10",410 M⁻¹ s⁻¹
LDLEVDKAVSGLRSLTTLLRALG [ML1-C1],kon,[1],1750 M⁻¹ s⁻¹
same,koff,[1],0.262 s⁻¹
same,clustering of cell protective and proliferative effects relative to EPO,[2],clustered as having similar effects as EPO
LHVDKAVSGLRSLTTLLRAL [ML2],koff,"[1]; SPR, Table 10",0.0044 s⁻¹
"LHVLKAVSGLLTLTMIRRA (MLP-H) [ML1-H2 with two amino acids removed from both ends, for in vivo use]",character of erythropoietin receptor activation,[3],weak yet lasts for a prolonged period of time
same,erythropoietin receptor activation after 30 minutes,[3]; [6],maintains activation even after 30 minutes
LQLHVDKAVSGLRSLTTLLRALG [ML1],kon,"[1]; SPR, Table 10",1310 M⁻¹ s⁻¹
same,koff,"[1]; SPR, Table 10",0.0085 s⁻¹
same,kon,"[1]; SPR, Table 11",1310 M⁻¹ s⁻¹
same,koff,"[1]; SPR, Table 11",0.00847 s⁻¹
same,cell proliferative effects compared to EPO groups,[2],a large difference
same,cell protective effects compared to EPO groups,[2],no large difference
LQLHVLKAVAGLRTLAMIRRALA [ML1-H3],kon,"[1]; SPR, Table 11",4160 M⁻¹ s⁻¹
same,koff,"[1]; SPR, Table 11",0.00477 s⁻¹
same,cell proliferative effects compared to EPO groups,[2],a large difference
same,cell protective effects compared to EPO groups,[2],no large difference
LQLHVLKAVSGLLTHTTLLKALG [ML1-H1],kon,"[1]; SPR, Table 11",1010 M⁻¹ s⁻¹
same,koff,"[1]; SPR, Table 11",0.00794 s⁻¹
same,cell proliferative effects compared to EPO groups,[2],a large difference
same,cell protective effects compared to EPO groups,[2],no large difference
LQLHVLKAVSGLLTLTMIRRALG [ML1-H2],kon,"[1]; SPR, Table 11",3430 M⁻¹ s⁻¹
same,koff,"[1]; SPR, Table 11",0.00105 s⁻¹
same,cell proliferative effects compared to EPO groups,[2],a large difference
same,cell protective effects compared to EPO groups,[2],no large difference
LQLHVLKRVSGLLSHTMLLKALG [ML1-1],kon,"[1]; SPR, Table 10",5550 M⁻¹ s⁻¹
same,koff,"[1]; SPR, Table 10",0.0059 s⁻¹
LQRHVDKRVSGLRSLTTLLRALG [ML1-C2],kon,"[1]; SPR, Table 11",1590 M⁻¹ s⁻¹
same,koff,"[1]; SPR, Table 11",0.0188 s⁻¹
same,cell proliferation rate,[4],cell proliferative effects to a degree similar to that of the natural erythropoietin
same,clustering of cell protective and proliferative effects relative to EPO,[2],clustered as having similar effects as EPO
LQRHVKKRVKGLKSLTTLLRALG [ML1-C3],kon,"[1]; SPR, Table 11",1100 M⁻¹ s⁻¹
same,koff,"[1]; SPR, Table 11",0.0109 s⁻¹
same,cell proliferation rate,[4],cell proliferative effects to a degree similar to that of the natural erythropoietin
same,clustering of cell protective and proliferative effects relative to EPO,[2],clustered as having similar effects as EPO
NKAVAGLRSLTVN [ML8-1],koff,"[1]; SPR, Table 10",0.15 s⁻¹
"RHVKKRVKGLKSLTTLLRA (MLP-C) [ML1-C3 with two amino acids removed from both ends, for in vivo use]",hemoglobin content,[5]; [7],significant increases
same,mean corpuscular hemoglobin,[5]; [7],significant increases
same,mean corpuscular hemoglobin concentration,[5]; [7],significant increases
same,red blood cell count,"[5]; 100 μg/kg intraperitoneal daily over 14 days, FIG. 11B",significant increases
same,platelet concentration,"[5]; intraperitoneal daily over 14 days, FIG. 11D",no large change
same,hematocrit,"[5]; intraperitoneal, 1 or 100 μg/kg daily over 14 days, FIG. 11A",significantly increased according to an administration dose
same,character of erythropoietin receptor activation,[3],brief but potent activation
same,erythropoietin receptor activation after 30 minutes,[3]; [6],decline thereafter
same,time of maximum erythropoietin receptor activity (ERK1/2 phosphorylation),[3]; [6],30 min
RHVQKAESGLRSLTKLLREL [ML2-1],kon,"[1]; SPR, Table 10",310 M⁻¹ s⁻¹
same,koff,"[1]; SPR, Table 10",0.0041 s⁻¹
SGLRSLTTLLRALG [ML5],kon,"[1]; SPR, Table 10",304 M⁻¹ s⁻¹
same,koff,"[1]; SPR, Table 10",0.0001 s⁻¹
TKVNFYAWKR [ML3],kon,"[1]; SPR, Table 10",205 M⁻¹ s⁻¹
same,koff,"[1]; SPR, Table 10",0.003 s⁻¹
TRVNYQAWKR [ML3-1],kon,"[1]; SPR, Table 10",3080 M⁻¹ s⁻¹
same,koff,"[1]; SPR, Table 10",0.013 s⁻¹

# — patent US11987608B2, “Composition for accelerating cell proliferation comprising erythropoietin-derived peptide” (SYLUS CO., LTD., priority 2018, dated 2024)
